TGI data for eight compounds are collected here from PubChem BioAssay (NCI).

Holding throughout (experiment): DTP human tumour cell line panel, 48 h
Assay [1] has as its system NCI-H460 lung.
Assay [2] concerns HCT-116 colon.
Assay [3] relates to U251 CNS.
For assay [4], the system named is HT29 colon.
The subject of assay [5] is SK-MEL-5 melanoma.
For assay [6], the system named is CCRF-CEM leukemia.
Assay [7] has as its system SR leukemia.
In assay [8] the test system is RXF 393 renal.
Assay [9] concerns SNB-75 CNS.
Assay [10] deals with MDA-MB-435.
The test system of assay [11] is SF-295 CNS.
In assay [12] the test system is COLO 205 colon.
Assay [13] relates to RPMI-8226 leukemia.
Assay [14] concerns UO-31 renal.
The subject of assay [15] is PC-3 prostate.
In assay [16] the test system is A498 renal.
Assay [17] deals with HS 578T breast.
Assay [18] has as its system NCI-H522 lung.

Each structure is given as a SMILES string.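 All cell lines were grown in 96-well plates and treated with compound for 48 hours. TGI is the concentration that stops growth completely.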

With `c1ccc(-c2c(-c3cccs3)[nH]c(-c3cccs3)c2-c2ccccn2)nc1`, the concentration for total growth inhibition (TGI) is 63.5 µM in assay [1]; more than 100 µM in [2]; 48.7 µM in assay [3]; 30.3 µM in assay [4]; 26.6 µM in [5]; 52.5 µM in [6]. The TGI is 81.1 µM in assay [7]; 53.5 µM in assay [8]; 42.9 µM in [9]; 43.6 µM in assay [10]; 39.2 µM in [11]; 30.6 µM in assay [12]. Further, the TGI in [13] worked out at 68.5 µM; in [14] it was 57.3 µM; in assay [15], 30.8 µM; in assay [16] it was 78.2 µM; in [17] it was 59.7 µM.

Consider `CCNC1=C(NC(=O)c2ccccc2)C(=O)c2ccccc2C1=O`, for which the TGI is more than 100 µM in [1]; 79.2 µM in [18]; more than 100 µM in [2]; more than 100 µM in assay [3]; 82.5 µM in assay [4]; more than 100 µM in assay [6]. Further, the total growth inhibition concentration (TGI) in assay [7] was more than 100 µM; in assay [8] it was 74.1 µM; in [10] it was 19.4 µM; in assay [11], more than 100 µM; in assay [12], more than 100 µM; in assay [13], more than 100 µM. In addition, the concentration for total growth inhibition (TGI) in assay [15] is 78.9 µM; in assay [17], more than 100 µM.

As to `c1ccc(Cn2c(-c3ccc(-c4ccccc4)cc3)cc3ccccc32)cc1`, the concentration for total growth inhibition (TGI) in [1], in assay [18], in [2], in [3], in assay [4] and in assay [5] was more than 100 µM in each case. Besides, the TGI in [6], in assay [7], in [9], in assay [10], in assay [11] and in assay [12] was more than 100 µM in each case. Besides, the TGI in [13], in assay [14], in [15] and in [17] was more than 100 µM each time.

Consider `CCOC(=O)/C(C(=S)NCc1ccccc1)=C(/N)N1CCCC1`, for which the TGI in assay [1], in assay [18], in [2], in assay [3], in [4] and in [5] was more than 100 µM in each case. Also, the TGI in assay [6], in assay [7], in assay [8], in [10], in assay [11] and in assay [12] was more than 100 µM in each case. The TGI in assay [13], in assay [14], in assay [15], in assay [16] and in assay [17] was more than 100 µM throughout.

As for `COC(=O)c1c(O)ccc2c1c1c(n2Cc2ccccc2OC)C(=O)c2ccccc2C1=O`, the concentration for total growth inhibition (TGI) in assay [1] was found to be 16.6 µM; in assay [18], 26.8 µM; in [2], 16.6 µM; in assay [3] it was 24.4 µM; in assay [4], 21.3 µM; in assay [5], 25.8 µM. Moreover, the TGI in assay [6] was 17.7 µM; in assay [7], 3.18 µM; in assay [8] it was 30.7 µM; in [10] it was 27.7 µM; in assay [11], 63.6 µM; in assay [12], 3.31 µM. Besides, the total growth inhibition concentration (TGI) was 10.5 µM in assay [13]; 36.9 µM in assay [14]; 24.5 µM in assay [15]; more than 100 µM in assay [16]; 53.2 µM in [17].

Regarding `Cc1ccc(S(=O)(=O)N/N=C2\CCCCCCCCCCC2CN(C)C)cc1` (stereo unspecified), the TGI in [1] amounted to 25.3 µM; in assay [18], 27.4 µM; in assay [2], 28.2 µM; in assay [3], 29.3 µM; in assay [4], 29.5 µM; in [5], 24 µM. Further, the TGI in assay [6] was 37.2 µM; in assay [7], more than 100 µM; in assay [8], 26.6 µM; in assay [10], 28 µM; in [11] it was 30.9 µM; in [12], 31.9 µM. Moreover, the TGI in assay [13] was more than 100 µM; in [14], 21 µM; in [15], 30.3 µM; in assay [16], 34.9 µM; in assay [17], 35.6 µM.

For `COC1=C2CC(C)CC(OC)C(OC(=O)CN)[C@H](C)/C=C(\C)C(OC(N)=O)C(OC)/C=C\C=C(/C)C(=O)NC(=CC1=O)C2=O` (stereo partly specified), the TGI in assay [1] is 20.9 µM; in assay [18], 1.15 µM; in [2], 3.45 µM; in assay [3] it was 12.6 µM; in [4] it was 11.2 µM; in assay [5], 4.51 µM. The TGI in assay [7] is 1.98 µM; in assay [8] it was 8.21 µM; in [10], 2.89 µM; in assay [11], 17.5 µM; in [12], 0.559 µM; in [13], more than 100 µM. In addition, the TGI was 11.6 µM in assay [14], 13.3 µM in [15], 24.7 µM in assay [16] and 20.2 µM in assay [17].

As for `Cc1ccc(S(=O)(=O)N/N=C2\CCC3(O)CC2(C)CCC2C3CC2(C)C)cc1` (stereo unspecified), the concentration for total growth inhibition (TGI) is 46.7 µM in assay [1]; 52.9 µM in assay [18]; more than 100 µM in assay [2]; more than 100 µM in [3]; more than 100 µM in [4]; more than 100 µM in [5]. For the same compound, the total growth inhibition concentration (TGI) in assay [6] is more than 100 µM; in [7], more than 100 µM; in assay [8] it was more than 100 µM; in assay [10], more than 100 µM; in assay [11], more than 100 µM; in [12], 46.5 µM. In addition, the TGI in assay [13] was more than 100 µM; in [14] it was 80.3 µM; in assay [15], 66.2 µM; in [16], more than 100 µM; in assay [17] it was 95.6 µM.
